{
  "source": "patent US20030005484A1",
  "about": "“Microbiocidal and pesticidal aromatic aldehydes” (ProGuard, Inc., priority 1994, published 2003)",
  "key": {"grape phylloxera eggs": {"tested_on": "grape phylloxera eggs", "test": "whole plant or invertebrate", "details": "for eggs that did not hatch completely (IH) / nymphs that died in the shell (DIS): 7 days", "description": "Mixed age groups of 60 grape phylloxera eggs were established on filter paper (Whatman #1, 5.5 cm circles) in 50×9 mm sealed plastic petri dishes treated with 100 μl of solution. A selected concentration of a test formulation of 400 μl was added to the filter disk and the dish closed with the petri dish cover and placed in a plastic container box. After 6 hours, the box was placed in an environmental chamber at 24° C. in the dark. The eggs were placed in groups of 10. After one week, the percentage of hatch is determined. In an initial test, doses from 0.1 to 25,000 ppm cinnamic aldehyde in 6% NaHCO3 and 2% Tween 80 were evaluated with a single group of eggs at each dosage. Three replicates of the experiment were performed. […] LD50 and LD95 were determined by probit analysis.\nGrape phylloxera eggs were treated with cinnamaldehyde (CNMA) in a 6% NaHCO3, 2% Tween-80 formulation in a laboratory bioassay. Mortality of the eggs was indicated by failure of the egg shell to split. […] Leaves of one-year-old greenhouse Vitis vinifera cultivar Merlot vines heavily infested with grape phylloxera were sprayed to run-off with a CNMA treatment using the same formulation. […] Roots taken from plants 1, 2 and 5 weeks after CNMA or other treatments were placed in Petri dish bioassays and infested with untreated phylloxera eggs.\nEggs of various age classes were placed on Whatman #1 filter paper moistened with enough treatment solution to form a meniscus about halfway up the sides of the eggs. The pieces of filter paper with eggs were maintained in sealed plastic Petri dishes at […] until they were 7 days old and then hatched individuals were counted. Hatch was considered successful if the […]"}, "[1]": {"tested_on": "Silverleaf Whitefly (Bemisia argentifolii)", "test": "silverleaf whitefly 1st and 2nd instars on poinsettia", "format": "in vivo", "details": "0.5% cinnamic aldehyde and […] Tween 20, 48 hours", "description": "Clip cages were set on poinsettia plants leaves to capture white fly adults which then were allowed to oviposit for 48 hours. Four plants per treatment or control were put into an environmental chamber and the eggs allowed to incubate for 5 days until a majority of the eggs had hatched to first and second instar. Three treatments at 0.5% cinnamic aldehyde and 0.25% Tween 20 (T1, T2, T3) and three control treatments of 0.25% Tween 20 only (C1, C2, C3) were sprayed to run off on each plant. Mortality was recorded after 48 hours (see Table 23)."}, "powdery mildew": {"tested_on": "powdery mildew", "test": "powdery mildew on roses, disease rating / MPDC after foliar spray", "format": "in vivo, Sphaerotheca pannosa", "details": "for Mean % Disease Control, rose powdery mildew: single 100 ml foliar spray; for Mean Percentage of Disease Control (MPDC), powdery mildew: five week trial", "description": "Each formulation is evaluated for its effect on specific pests and/or plant host using any of the compounds of formula (1) as well as other components of the formulation such as Tween 80 and/or sodium bicarbonate, with the combination and effective amount of each component adapted for a particular application to minimize toxicity while maintaining or increasing the antipathogenic effect of the formulation. The effective amount of each component may be determined by systematically varying the amount of that component in a test formulation, treating a plant of interest with the test formulation, and monitoring the level of pest infestation compared to an untreated control plant. An effective amount of a test component is identified as the amount that controls the growth of the pathogen on the plant host, thus reducing the disease rating of the plant. The mean percentage disease […] (MPDC) can be calculated for each particular application. MPDC is defined by the formula: [formula] Eight cultivars of rose were tested to investigate the effect of a cinnamic aldehyde/NaHCO3 formulation on rust and spores. The cultivars used included Moss unnamed (Moss), […], Rosette Delize (Hybrid Tea), Rosa Rugosa Rubra (Rugosa), Abel Morrison (Hybrid perpetual), John Laing, Betty Prior, and Rose de Roi. […] The Hybrid Tea and Hybrid perpetual were rated 3 and the Rugosa was rated 1. […] Control plants received no treatment. […] Moreover, the treatment appeared to have induced systemic resistance. […] Plants were an average of 0.86 m apart. […] Controls were untreated plants. […] Weekly reviews were made of the various plants. […] of infected rose in dedicated experimental rose gardens were used. Four Mrs. John Laing (Hybrid perpetual) and two Marchionese of Londonderry (Hybrid perpetual) rose plants were treated with one of two formulations of coniferyl aldehyde. […] The first two Mrs. […] Mrs. […] Both Marchionese of Londonderry plants (P5 and P6) were rated 5 for powdery mildew and rust after Paulus and Nelson (supra). Two treatment formulae were used for this trial. […] Control plants were sprayed with water alone. The change in the rating from pre-treatment to post-treatment was calculated as the mean percentage of disease control (MPDC) as described herein. A three treatment experiment with cinnamic aldehyde formula, coniferyl aldehyde formula and combined cinnamic and coniferyl aldehyde formula was carried out on field grown roses known to be susceptible to powdery mildew. The plants were blocked by variety before fungicide treatments and were randomized as to the plants. Two varieties were used in each of the three experiments described below. […] In experiment 3 Comte de Chambord (Portland) and Madame Pierre Oger (Bourbon) were used. In Experiment 1, the effect of cinnamic aldehyde alone and in combination with Tween 80 and/or NaHCO3 component was evaluated in experiment 2 the effect of coniferyl aldehyde alone and in combination with Tween 80 and/or NaHCO3 was evaluated and in experiment 3 a combination of cinnamic aldehyde and coniferyl aldehyde with Tween 80 and/or NaHCo3 was evaluated. […] See Table 3 for the treatment protocol; formula 1 was used for these experiments. […] Plants were evaluated using the Paulus/Nelson scale just prior to and four days after treatment. […] Moreover, cinnamic aldehyde, coniferyl aldehyde, Tween 80 and NaHCO3 are used in the food industry and there is likely to be little toxicological risk to the consumer or handler from any horticultural or food crop sprayed in this way. Similarly, as these chemicals leave no toxic residue, there is little chance of any detrimental effect on the wider environment, and their use is likely to be compatible with current biological control methods such as beneficial insects and/or microorganisms."}, "[2]": {"details": "10 ppm in 6% NaHCO3, 2% Tween 80"}, "[3]": {"details": "100 ppm in 6% NaHCO3, 2% Tween 80"}},
  "data": [
    {"smiles": "O=C/C=C/c1ccccc1", "note": "[cinnamic aldehyde]", "values": [
      {"measurement": "7 day EC50, egg mortality (failure of the egg shell to split)", "setting": "grape phylloxera eggs; 6% NaHCO3, 2% Tween-80 formulation", "value": 115, "unit": "ppm"},
      {"measurement": "eggs that did not hatch completely (IH)", "setting": "grape phylloxera eggs; [2]", "value": 100, "unit": "%"},
      {"measurement": "nymphs that died in the shell (DIS)", "setting": "grape phylloxera eggs; [2]", "value": "none died in the shell"},
      {"measurement": "eggs that did not hatch completely (IH)", "setting": "grape phylloxera eggs; [3]", "value": 12, "unit": "%"},
      {"measurement": "nymphs that died in the shell (DIS)", "setting": "grape phylloxera eggs; [3]", "value": 88, "unit": "%"},
      {"measurement": "nymphs that died in the shell (DIS)", "setting": "grape phylloxera eggs; 100 ppm in 6% NaHCO3, 2% Tween 80 plus 0.86 ml of 10 brix saponin solution", "value": 93, "unit": "%"},
      {"measurement": "nymphs that died in the shell (DIS)", "setting": "grape phylloxera eggs; 5000 ppm aldehyde in 6% NaHCO3, 2% Tween 80", "value": "all nymphs died in the shell"},
      {"measurement": "Approximate Percent Mortality, egg test", "setting": "grape phylloxera eggs; CNMA 100 ppm, Days of Treatment 1", "value": 8, "unit": "%"},
      {"measurement": "Approximate Percent Mortality, egg test", "setting": "grape phylloxera eggs; CNMA 100 ppm, Days of Treatment 2", "value": 0, "unit": "%"},
      {"measurement": "Approximate Percent Mortality, egg test", "setting": "grape phylloxera eggs; CNMA 100 ppm, Days of Treatment 3", "value": 0, "unit": "%"},
      {"measurement": "Approximate Percent Mortality, egg test", "setting": "grape phylloxera eggs; CNMA 100 ppm, Days of Treatment 4", "value": 6, "unit": "%"},
      {"measurement": "Approximate Percent Mortality, egg test", "setting": "grape phylloxera eggs; CNMA 100 ppm, Days of Treatment 5", "value": 25, "unit": "%"},
      {"measurement": "Approximate Percent Mortality, egg test", "setting": "grape phylloxera eggs; CNMA 180 ppm, Days of Treatment 1", "value": 100, "unit": "%"},
      {"measurement": "Approximate Percent Mortality, egg test", "setting": "grape phylloxera eggs; CNMA 180 ppm, Days of Treatment 2", "value": 0, "unit": "%"},
      {"measurement": "Approximate Percent Mortality, egg test", "setting": "grape phylloxera eggs; CNMA 180 ppm, Days of Treatment 3", "value": 0, "unit": "%"},
      {"measurement": "Approximate Percent Mortality, egg test", "setting": "grape phylloxera eggs; CNMA 180 ppm, Days of Treatment 4", "value": 47, "unit": "%"},
      {"measurement": "Approximate Percent Mortality, egg test", "setting": "grape phylloxera eggs; CNMA 180 ppm, Days of Treatment 5", "value": 72, "unit": "%"},
      {"measurement": "Approximate Percent Mortality, egg test", "setting": "grape phylloxera eggs; CNMA 320 ppm, Days of Treatment 1", "value": 100, "unit": "%"},
      {"measurement": "Approximate Percent Mortality, egg test", "setting": "grape phylloxera eggs; CNMA 320 ppm, Days of Treatment 2", "value": 37, "unit": "%"},
      {"measurement": "Approximate Percent Mortality, egg test", "setting": "grape phylloxera eggs; CNMA 320 ppm, Days of Treatment 3", "value": 28, "unit": "%"},
      {"measurement": "Approximate Percent Mortality, egg test", "setting": "grape phylloxera eggs; CNMA 320 ppm, Days of Treatment 4", "value": 85, "unit": "%"},
      {"measurement": "Approximate Percent Mortality, egg test", "setting": "grape phylloxera eggs; CNMA 320 ppm, Days of Treatment 5", "value": 100, "unit": "%"},
      {"measurement": "approximate egg hatch LD 50", "setting": "grape phylloxera eggs; egg tests with CNMA analogs", "value": 320, "unit": "ppm"},
      {"measurement": "Alive, total of T1-T3", "setting": "[1]", "value": 35},
      {"measurement": "Dead, total of T1-T3", "setting": "[1]", "value": 363},
      {"measurement": "Mortality (%)", "setting": "[1]; T1-T3 combined, Tween 20 control 9%", "value": 91, "unit": "%"},
      {"measurement": "Mean % Disease Control, rose powdery mildew", "setting": "powdery mildew; aldehyde 5 g (mixture 2.5 g + 2.5 g) with NaHCO3 (80 g), four days", "value": 56, "unit": "%"},
      {"measurement": "Mean % Disease Control, rose powdery mildew", "setting": "powdery mildew; aldehyde 5 g (mixture 2.5 g + 2.5 g) with T80 (10 g), four days", "value": 44, "unit": "%"},
      {"measurement": "Mean % Disease Control, rose powdery mildew", "setting": "powdery mildew; aldehyde 5 g (mixture 2.5 g + 2.5 g) with T80 + NaHCO3 (formulas G, M, Q), four days", "value": 94, "unit": "%"},
      {"measurement": "Mean % Disease Control, rose powdery mildew", "setting": "powdery mildew; aldehyde 5 g (mixture 2.5 g + 2.5 g), no additive, rated four days after treatment", "value": 50, "unit": "%"},
      {"measurement": "Mean Percentage of Disease Control (MPDC), powdery mildew", "setting": "powdery mildew; field rose Betty Prior, same single spray", "value": 64.3, "unit": "%"},
      {"measurement": "Mean Percentage of Disease Control (MPDC), powdery mildew", "setting": "powdery mildew; field rose John Laing, single spray 5 g cinnamic aldehyde, 10 g Tween 80, 80 g NaHCO3 per 1000 g", "value": 98.3, "unit": "%"},
      {"measurement": "Mean Percentage of Disease Control (MPDC), powdery mildew", "setting": "powdery mildew; field rose Rose de Roi, same single spray", "value": 100, "unit": "%"},
      {"measurement": "MPDC, powdery mildew, average for all three roses", "setting": "powdery mildew; field roses John Laing, Betty Prior, Rose de Roi, same single spray", "value": 90.7, "unit": "%"},
      {"measurement": "time plants remained free of powdery mildew and rust", "setting": "powdery mildew; potted or field roses sprayed to runoff with emulsion of cinnamic aldehyde and sodium bicarbonate, concomitantly saponin", "value": "up to 56 days"},
      {"measurement": "powdery mildew after a single treatment", "setting": "powdery mildew; potted roses, ~100 ml foliar spray of 5 g cinnamic aldehyde, 80 g NaHCO3, 10 g Tween 80 per 1000 g, weekly saponin, observed 8 weeks", "value": "eradicative"}
    ]}
  ]
}
